Laboratory results taken from ChEMBL document CHEMBL1208739, “Synthesis and SAR of azolopyrimidines as potent and selective dipeptidyl peptidase-4 (DPP4) inhibitors for type 2 diabetes” (Bioorg Med Chem Lett, 2010).

Legend:
Dipeptidyl peptidase 9 = Dipeptidyl peptidase 9 (Homo sapiens, UniProt Q86TI2); assay: Inhibition of human DPP89
Dipeptidyl peptidase 8 = Dipeptidyl peptidase 8 (Homo sapiens, UniProt Q6V1X1); assay: Inhibition of human DPP8
[1] = biological target: Voltage-gated inwardly rectifying potassium channel KCNH2 (Homo sapiens, UniProt Q12809); assay: Inhibition of human ERG
Sequence of Voltage-gated inwardly rectifying potassium channel KCNH2 (Q12809 whole entry): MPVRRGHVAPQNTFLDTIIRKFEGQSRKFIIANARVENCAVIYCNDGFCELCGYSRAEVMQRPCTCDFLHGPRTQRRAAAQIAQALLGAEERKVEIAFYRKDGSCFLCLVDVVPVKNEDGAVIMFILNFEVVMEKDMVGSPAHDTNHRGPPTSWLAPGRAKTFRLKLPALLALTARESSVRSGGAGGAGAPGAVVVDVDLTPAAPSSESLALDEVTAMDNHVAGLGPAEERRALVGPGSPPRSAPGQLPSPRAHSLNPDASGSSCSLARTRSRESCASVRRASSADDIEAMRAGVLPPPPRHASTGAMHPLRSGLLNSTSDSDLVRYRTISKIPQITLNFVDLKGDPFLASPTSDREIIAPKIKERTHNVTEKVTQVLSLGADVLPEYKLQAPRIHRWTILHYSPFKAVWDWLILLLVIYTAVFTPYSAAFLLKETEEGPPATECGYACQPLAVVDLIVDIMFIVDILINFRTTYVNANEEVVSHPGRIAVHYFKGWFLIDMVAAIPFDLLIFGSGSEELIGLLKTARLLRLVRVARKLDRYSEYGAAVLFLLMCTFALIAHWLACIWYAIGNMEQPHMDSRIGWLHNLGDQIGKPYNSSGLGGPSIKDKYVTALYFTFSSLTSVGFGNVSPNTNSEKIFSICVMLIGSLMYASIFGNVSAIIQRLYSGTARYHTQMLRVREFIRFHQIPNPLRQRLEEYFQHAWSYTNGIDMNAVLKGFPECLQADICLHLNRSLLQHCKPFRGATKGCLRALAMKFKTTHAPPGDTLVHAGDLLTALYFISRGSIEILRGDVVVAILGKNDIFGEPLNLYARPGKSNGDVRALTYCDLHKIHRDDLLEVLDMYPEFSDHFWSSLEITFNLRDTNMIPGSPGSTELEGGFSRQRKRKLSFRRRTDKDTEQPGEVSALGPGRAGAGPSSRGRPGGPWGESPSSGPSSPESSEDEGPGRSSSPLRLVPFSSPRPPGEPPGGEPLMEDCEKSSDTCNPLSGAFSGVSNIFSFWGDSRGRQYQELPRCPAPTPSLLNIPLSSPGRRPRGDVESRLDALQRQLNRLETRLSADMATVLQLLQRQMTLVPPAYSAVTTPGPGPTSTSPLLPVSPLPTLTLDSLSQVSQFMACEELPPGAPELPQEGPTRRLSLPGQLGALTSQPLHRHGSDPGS

Cytochrome P450 3A4 = Cytochrome P450 3A4 (Homo sapiens, UniProt P08684); assay: inhibition of CYP3A4; type: ADME
Sequence of Cytochrome P450 3A4 (P08684 whole entry): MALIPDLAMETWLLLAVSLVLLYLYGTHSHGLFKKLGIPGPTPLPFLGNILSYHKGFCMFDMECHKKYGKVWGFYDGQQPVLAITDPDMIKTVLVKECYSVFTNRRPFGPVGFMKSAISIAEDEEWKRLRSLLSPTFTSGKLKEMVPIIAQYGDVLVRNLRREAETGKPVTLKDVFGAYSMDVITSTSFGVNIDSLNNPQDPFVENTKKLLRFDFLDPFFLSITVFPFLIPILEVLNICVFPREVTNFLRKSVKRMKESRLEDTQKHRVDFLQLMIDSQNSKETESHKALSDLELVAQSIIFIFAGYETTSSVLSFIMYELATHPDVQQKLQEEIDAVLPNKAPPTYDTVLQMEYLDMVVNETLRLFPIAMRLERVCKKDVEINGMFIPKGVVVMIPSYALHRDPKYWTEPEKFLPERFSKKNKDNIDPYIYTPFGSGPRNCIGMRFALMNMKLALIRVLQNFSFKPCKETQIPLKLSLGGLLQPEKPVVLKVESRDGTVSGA

Cytochrome P450 2C9 = Cytochrome P450 2C9 (Homo sapiens, UniProt P11712); assay: inhibition of CYP2C9; type: ADME
Sequence of Cytochrome P450 2C9 (P11712 whole entry): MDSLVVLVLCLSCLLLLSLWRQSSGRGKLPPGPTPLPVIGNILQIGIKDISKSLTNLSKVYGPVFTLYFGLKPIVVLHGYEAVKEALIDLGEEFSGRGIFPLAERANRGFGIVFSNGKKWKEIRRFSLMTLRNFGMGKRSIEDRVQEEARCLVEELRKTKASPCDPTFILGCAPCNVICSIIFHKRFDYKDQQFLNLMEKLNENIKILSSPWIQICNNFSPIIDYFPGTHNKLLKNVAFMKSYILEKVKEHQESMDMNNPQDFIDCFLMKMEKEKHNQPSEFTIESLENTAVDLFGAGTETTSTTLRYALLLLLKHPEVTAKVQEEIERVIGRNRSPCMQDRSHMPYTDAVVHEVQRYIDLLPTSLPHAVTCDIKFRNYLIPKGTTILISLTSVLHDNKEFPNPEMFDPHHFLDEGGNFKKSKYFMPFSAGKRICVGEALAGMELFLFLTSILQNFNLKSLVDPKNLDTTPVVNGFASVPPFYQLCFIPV

Cytochrome P450 2C19 = Cytochrome P450 2C19 (Homo sapiens, UniProt P33261); assay: inhibition of CYP2C19; type: ADME
Sequence of Cytochrome P450 2C19 (P33261 whole entry): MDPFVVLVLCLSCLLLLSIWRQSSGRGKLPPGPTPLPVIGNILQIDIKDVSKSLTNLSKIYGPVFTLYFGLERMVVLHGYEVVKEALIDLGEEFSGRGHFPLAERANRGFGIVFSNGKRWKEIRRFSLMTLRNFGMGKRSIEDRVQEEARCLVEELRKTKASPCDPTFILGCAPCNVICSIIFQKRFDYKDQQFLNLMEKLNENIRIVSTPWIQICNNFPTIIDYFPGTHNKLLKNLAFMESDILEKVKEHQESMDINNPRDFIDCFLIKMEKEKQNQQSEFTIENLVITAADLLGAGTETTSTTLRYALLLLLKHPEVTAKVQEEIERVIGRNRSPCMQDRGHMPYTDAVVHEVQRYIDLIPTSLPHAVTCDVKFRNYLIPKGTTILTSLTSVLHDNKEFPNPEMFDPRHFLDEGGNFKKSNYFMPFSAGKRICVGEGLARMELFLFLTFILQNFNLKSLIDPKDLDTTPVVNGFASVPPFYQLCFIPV

Cytochrome P450 1A2 = biological target: T1, Cytochrome P450 1A2 (Homo sapiens, UniProt P05177); assay: inhibition of CYP1A2; type: ADME
T1 sequence (P05177 whole entry): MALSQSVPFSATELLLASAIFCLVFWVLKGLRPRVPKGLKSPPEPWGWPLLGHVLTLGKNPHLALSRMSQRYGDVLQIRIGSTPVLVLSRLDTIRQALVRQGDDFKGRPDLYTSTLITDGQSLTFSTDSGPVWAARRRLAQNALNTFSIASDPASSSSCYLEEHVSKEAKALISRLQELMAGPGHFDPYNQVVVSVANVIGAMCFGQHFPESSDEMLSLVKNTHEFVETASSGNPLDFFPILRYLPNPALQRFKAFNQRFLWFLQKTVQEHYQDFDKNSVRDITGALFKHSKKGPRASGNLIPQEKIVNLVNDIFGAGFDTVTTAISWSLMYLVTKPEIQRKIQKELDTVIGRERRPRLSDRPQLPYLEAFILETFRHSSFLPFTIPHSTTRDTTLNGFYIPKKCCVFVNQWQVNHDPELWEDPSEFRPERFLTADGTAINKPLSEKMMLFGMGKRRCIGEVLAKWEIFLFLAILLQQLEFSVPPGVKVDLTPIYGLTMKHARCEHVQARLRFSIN

Mus musculus [2] = assay: Antidiabetic activity in ob/ob mouse assessed as increase in mean insulin level at 3 umol/kg, po measured after 15 mins of glucose challenge by oral glucose tolerance test; type: functional
Mus musculus [3] = assay: Antidiabetic activity in ob/ob mouse assessed as increase in mean insulin level at 10 umol/kg, po measured after 15 mins of glucose challenge by oral glucose tolerance test; type: functional

Sequence of Dipeptidyl peptidase 8 (Q6V1X1 whole entry): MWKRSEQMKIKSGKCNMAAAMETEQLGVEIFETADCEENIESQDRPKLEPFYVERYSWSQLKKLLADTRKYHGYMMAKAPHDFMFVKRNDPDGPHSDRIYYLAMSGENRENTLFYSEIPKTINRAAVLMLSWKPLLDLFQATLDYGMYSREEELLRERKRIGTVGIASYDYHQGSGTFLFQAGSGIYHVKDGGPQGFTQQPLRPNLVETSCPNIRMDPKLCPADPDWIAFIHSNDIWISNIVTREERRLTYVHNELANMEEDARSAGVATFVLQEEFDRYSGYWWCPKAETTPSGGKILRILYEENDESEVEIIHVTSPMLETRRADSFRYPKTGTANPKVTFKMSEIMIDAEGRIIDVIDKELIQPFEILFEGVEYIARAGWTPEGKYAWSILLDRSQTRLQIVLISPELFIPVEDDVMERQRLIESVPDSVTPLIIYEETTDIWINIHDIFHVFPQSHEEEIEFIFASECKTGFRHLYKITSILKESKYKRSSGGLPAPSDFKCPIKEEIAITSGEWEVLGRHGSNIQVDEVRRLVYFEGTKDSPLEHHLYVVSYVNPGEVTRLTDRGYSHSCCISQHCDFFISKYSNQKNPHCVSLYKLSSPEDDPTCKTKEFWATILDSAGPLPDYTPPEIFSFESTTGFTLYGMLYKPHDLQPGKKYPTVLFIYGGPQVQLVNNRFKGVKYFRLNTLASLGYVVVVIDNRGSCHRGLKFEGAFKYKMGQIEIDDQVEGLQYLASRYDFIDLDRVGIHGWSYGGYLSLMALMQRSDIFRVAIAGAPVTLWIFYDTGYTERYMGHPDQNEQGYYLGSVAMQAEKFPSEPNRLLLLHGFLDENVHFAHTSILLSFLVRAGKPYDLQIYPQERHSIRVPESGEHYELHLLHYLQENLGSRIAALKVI
Sequence of Dipeptidyl peptidase 9 (Q86TI2 whole entry): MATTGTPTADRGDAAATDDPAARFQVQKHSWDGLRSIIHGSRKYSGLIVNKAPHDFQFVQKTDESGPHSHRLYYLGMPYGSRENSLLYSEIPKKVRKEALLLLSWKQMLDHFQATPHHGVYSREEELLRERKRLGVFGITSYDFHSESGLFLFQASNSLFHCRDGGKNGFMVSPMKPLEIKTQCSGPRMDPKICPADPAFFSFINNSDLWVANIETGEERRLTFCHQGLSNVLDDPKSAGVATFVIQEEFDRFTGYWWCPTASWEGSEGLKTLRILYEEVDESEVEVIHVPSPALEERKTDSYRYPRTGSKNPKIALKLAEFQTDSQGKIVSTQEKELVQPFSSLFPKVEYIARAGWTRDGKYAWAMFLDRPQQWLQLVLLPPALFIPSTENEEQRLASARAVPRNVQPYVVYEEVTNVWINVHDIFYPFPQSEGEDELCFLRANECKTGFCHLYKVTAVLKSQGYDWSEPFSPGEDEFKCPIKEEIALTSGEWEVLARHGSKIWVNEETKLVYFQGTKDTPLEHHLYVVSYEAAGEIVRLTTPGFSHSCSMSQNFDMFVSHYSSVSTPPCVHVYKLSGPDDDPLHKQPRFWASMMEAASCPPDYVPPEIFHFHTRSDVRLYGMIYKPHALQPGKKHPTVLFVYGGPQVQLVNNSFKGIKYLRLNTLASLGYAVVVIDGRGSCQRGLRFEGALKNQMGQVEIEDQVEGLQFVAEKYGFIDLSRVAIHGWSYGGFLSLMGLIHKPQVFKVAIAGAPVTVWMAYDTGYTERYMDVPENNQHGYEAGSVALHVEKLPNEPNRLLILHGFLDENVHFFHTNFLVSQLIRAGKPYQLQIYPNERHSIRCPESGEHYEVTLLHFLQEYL

| Ki (Dipeptidyl peptidase 9) [µM] | Ki (Dipeptidyl peptidase 8) [µM] | SMILES | other results |
| --- | --- | --- | --- |
| > 30 | > 30 | Cc1cc2nc(C)c(CN)c(-c3ccc(Cl)cc3Cl)n2n1 | – |
| > 30 | > 30 | Cc1nc2nc(C)c(CN)c(-c3ccc(Cl)cc3Cl)n2n1 | – |
| > 30 | > 30 | COC(=O)c1nc2nc(C)c(CN)c(-c3ccc(Cl)cc3Cl)n2n1 | – |
| > 30 | > 30 | CCN(CC)c1nc2nc(C)c(CN)c(-c3ccc(Cl)cc3Cl)n2n1 | – |
| > 30 | > 30 | CCN(C)c1nc2nc(C)c(CN)c(-c3ccc(Cl)cc3Cl)n2n1 | – |
| > 30 | – | COCCN(C)c1nc2nc(C)c(CN)c(-c3ccc(Cl)cc3Cl)n2n1 | – |
| > 30 | > 10 | Cc1nc2nc(N3CCCC3)nn2c(-c2ccc(Cl)cc2Cl)c1CN | – |

The next lines start with the compound.

| SMILES | Ki (Dipeptidyl peptidase 9) [µM] | Ki (Dipeptidyl peptidase 8) [µM] | other results |
| --- | --- | --- | --- |
| COc1ccccc1-c1cn2c(-c3ccc(Cl)cc3Cl)c(CN)c(C)nc2n1 | > 10 | – | – |
| Cc1nc2c(-c3ccccc3)cnn2c(-c2ccc(Cl)cc2Cl)c1CN | > 30 | > 30 | – |
| Cc1nc2cc(-c3ccccc3)nn2c(-c2ccc(Cl)cc2Cl)c1CN | > 20 | > 30 | inhibition (INH) [1]: 95%; IC50 (Cytochrome P450 3A4): 1 µM; IC50 (Cytochrome P450 2C9): 12 µM; IC50 (Cytochrome P450 2C19): 3 µM; IC50 (Cytochrome P450 1A2): 6 µM |
| CCC(=O)c1cnn2c(-c3ccc(Cl)cc3Cl)c(CN)c(C)nc12 | > 30 | > 30 | – |
| Cc1nc2cc(-c3ccco3)nn2c(-c2ccc(Cl)cc2Cl)c1CN | > 30 | > 30 | – |
| Cc1nc2cc(-c3ccc(Cl)cc3)nn2c(-c2ccc(Cl)cc2Cl)c1CN | > 30 | – | – |
| Cc1ccc(-c2cc3nc(C)c(CN)c(-c4ccc(Cl)cc4Cl)n3n2)cc1 | > 10 | > 30 | – |
| Cc1nc2nc(-c3ccccc3)nn2c(-c2ccc(Cl)cc2Cl)c1CN | > 30 | > 30 | inhibition (INH) [1]: 85% |
| Cc1nc2nc(C(=O)Nc3ccccc3)nn2c(-c2ccc(Cl)cc2Cl)c1CN | > 10 | – | – |
| Cc1nc2nc(N3CCOCC3)nn2c(-c2ccc(Cl)cc2Cl)c1CN | > 30 | – | – |
| Cc1nc2nc(N3CCSCC3)nn2c(-c2ccc(Cl)cc2Cl)c1CN | > 30 | > 30 | – |
| Cc1nc2nc(N3CCN(C(=O)OC(C)(C)C)CC3)nn2c(-c2ccc(Cl)cc2Cl)c1CN | > 30 | > 30 | – |
| Cc1nc2nc(N3CCNCC3)nn2c(-c2ccc(Cl)cc2Cl)c1CN | > 30 | > 30 | – |
| Cc1nc2nccn2c(-c2ccc(Cl)cc2Cl)c1CN | > 30 | > 30 | – |
| Cc1nc2nc(-c3ccccc3)cn2c(-c2ccc(Cl)cc2Cl)c1CN | > 30 | > 30 | inhibition (INH) [1]: 74%; IC50 (Cytochrome P450 3A4): 1 µM; IC50 (Cytochrome P450 2C9): > 40 µM; IC50 (Cytochrome P450 2C19): 13 µM; IC50 (Cytochrome P450 1A2; read-out: IC50): 19 µM; Activity (Mus musculus [2]): 51%; Activity (Mus musculus [3]): 74% |
